ChEMBL document CHEMBL1144186, “New iodoreboxetine analogues for SPECT imaging of the noradrenaline transporter” (Bioorg Med Chem Lett, 2008)

Legend:
[1] = Displacement of [3H]nisoxetine from rat brain NAT; format: tissue-based
[2] = target: Sodium-dependent serotonin transporter (Rattus norvegicus, UniProt P31652); test: Displacement of [3H]citalopram from rat brain SERT
[3] = target: Sodium-dependent dopamine transporter (Rattus norvegicus, UniProt P23977); test: Displacement of [3H]WIN-35428 from rat brain DAT; format: tissue-based
Chain of Sodium-dependent dopamine transporter (P23977 whole entry): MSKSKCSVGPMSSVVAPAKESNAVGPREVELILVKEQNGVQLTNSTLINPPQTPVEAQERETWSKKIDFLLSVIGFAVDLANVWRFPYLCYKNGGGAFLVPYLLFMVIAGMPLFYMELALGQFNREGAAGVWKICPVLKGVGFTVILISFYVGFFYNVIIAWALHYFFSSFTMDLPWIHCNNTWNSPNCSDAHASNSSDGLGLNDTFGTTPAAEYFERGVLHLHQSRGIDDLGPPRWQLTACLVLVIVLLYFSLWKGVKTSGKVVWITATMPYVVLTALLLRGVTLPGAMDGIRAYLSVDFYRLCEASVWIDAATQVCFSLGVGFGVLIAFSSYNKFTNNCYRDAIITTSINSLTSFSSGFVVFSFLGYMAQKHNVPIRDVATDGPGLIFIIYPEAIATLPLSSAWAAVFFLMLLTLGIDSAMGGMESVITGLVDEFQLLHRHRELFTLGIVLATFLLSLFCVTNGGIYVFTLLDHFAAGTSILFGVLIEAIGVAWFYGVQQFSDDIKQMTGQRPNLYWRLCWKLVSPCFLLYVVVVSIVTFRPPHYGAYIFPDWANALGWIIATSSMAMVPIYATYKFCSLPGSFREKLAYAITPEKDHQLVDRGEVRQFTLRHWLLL

Rattus norvegicus [4] = organism: Rattus norvegicus; test: Selectivity for rat NAT over rat SERT
Rattus norvegicus [5] = organism: Rattus norvegicus; test: Selectivity for rat NAT over rat DAT

Chain of Sodium-dependent serotonin transporter (P31652 whole entry): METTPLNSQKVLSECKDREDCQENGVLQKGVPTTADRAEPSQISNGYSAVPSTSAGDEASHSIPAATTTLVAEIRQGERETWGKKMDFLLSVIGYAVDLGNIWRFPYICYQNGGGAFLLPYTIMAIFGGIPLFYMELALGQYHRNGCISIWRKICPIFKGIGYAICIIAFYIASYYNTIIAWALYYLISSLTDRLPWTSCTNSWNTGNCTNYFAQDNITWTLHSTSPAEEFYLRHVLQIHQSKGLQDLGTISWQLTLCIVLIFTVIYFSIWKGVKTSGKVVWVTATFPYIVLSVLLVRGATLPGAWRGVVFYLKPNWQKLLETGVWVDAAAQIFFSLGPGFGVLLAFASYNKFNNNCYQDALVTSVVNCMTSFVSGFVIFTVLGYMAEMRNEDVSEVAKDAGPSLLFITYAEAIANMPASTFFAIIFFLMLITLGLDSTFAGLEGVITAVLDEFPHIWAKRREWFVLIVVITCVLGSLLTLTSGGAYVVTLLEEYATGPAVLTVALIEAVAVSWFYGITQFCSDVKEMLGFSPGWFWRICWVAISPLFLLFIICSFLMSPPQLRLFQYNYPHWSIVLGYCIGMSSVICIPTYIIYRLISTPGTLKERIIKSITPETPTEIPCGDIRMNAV

SMILES	Ki [1] [nM]	Ki [2] [nM]	Ki [3] [nM]	Ratio Ki (Rattus norvegicus [4])	Ratio Ki (Rattus norvegicus [5])
CCOc1ccccc1O[C@@H](c1ccc(I)cc1)[C@H]1CNCCO1	58.2	–	–	–	–
CCOc1ccccc1O[C@H](c1ccc(I)cc1)[C@@H]1CNCCO1	321	–	–	–	–
CCOc1ccccc1O[C@H](c1ccc(I)cc1)[C@H]1CNCCO1	64	646	716	–	–
CCOc1ccccc1O[C@@H](c1ccc(I)cc1)[C@@H]1CNCCO1	53.8	2790	1460	50	25
